Source: article PMC4104973 (IUCrJ, 2013)

Experiments:
[1] = molecular target: T1, WcbI (Burkholderia pseudomallei, UniProt Q63R74); conditions: absolute Tm at 1 mM ligand (no ligand 37.4 ± 0.4 °C); 10 mM HEPES pH 7.0, 150 mM NaCl
[2] = molecular target: T1, WcbI; conditions: covalent (disulfide to Cys14); co-crystallized with 200 µM acetyl-CoA; native structure 4BQO (1.56 Å) holds non-covalent CoA carried from E. coli
[3] = molecular target: T1, WcbI; test: biochemical

T1 sequence (Q63R74 1-312 limits assumed): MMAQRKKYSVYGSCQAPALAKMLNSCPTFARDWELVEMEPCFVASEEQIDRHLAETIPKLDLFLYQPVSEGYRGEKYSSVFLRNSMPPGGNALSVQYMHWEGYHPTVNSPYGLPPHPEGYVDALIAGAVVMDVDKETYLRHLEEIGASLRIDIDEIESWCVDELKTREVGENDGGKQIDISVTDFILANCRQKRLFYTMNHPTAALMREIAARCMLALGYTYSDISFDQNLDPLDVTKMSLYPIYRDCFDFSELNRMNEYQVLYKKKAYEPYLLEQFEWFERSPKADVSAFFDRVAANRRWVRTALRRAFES

Compound	T m ± SD ^† (°C) [1]	X-ray crystal structure, 1.38 Å [2]	Kd [3]
CC(=O)SCCNC(=O)CCNC(=O)[C@H](O)C(C)(C)COP(=O)(O)OP(=O)(O)OC[C@H]1O[C@@H](n2cnc3c(N)ncnc32)[C@H](O)[C@@H]1OP(=O)(O)O [acetyl-CoA]	45.6 ± 0.5 °C		
CC(C)(COP(=O)(O)OP(=O)(O)OC[C@H]1O[C@@H](n2cnc3c(N)ncnc32)[C@H](O)[C@@H]1OP(=O)(O)O)[C@@H](O)C(=O)NCCC(=O)NCCS [coenzyme A]	46.2 ± 0.2 °C	4bqn for WcbI covalently bound to coenzyme A and 4bqo for the native structure	58 ± 2 µM
